Laboratory results reported in EP2487185A1, “Hexapeptide with improved activity in the repair of cellular DNA of dermal cells” (Clinuvel Pharmaceuticals Limited, priority 2011, dated 2012).
Non-standard residues stand in square brackets, D forms with d. Nle = CCCC[C@H](N)C(=O)O

How the values were obtained:
Assay type in all cases: cell-based, human
[1] = tested on: melanocyte strain 1505b; test: Tyrosinase activity, dose-response, 6 days treatment
Protocol: Dose-response experiments were carried out on another adult strain 102b which is shown in Fig. 6 and on the strain 1505b which is a melanocyte strain: melanocytes were treated with 0.001-10 nM CUV9990 or NDP-MSH, or 0.1-10 nM MSH for a total of 6 days, with the culture medium changed and fresh peptide added every other day. Cell numbers as well as tyrosinase activity were then determined. Tyrosinase activity was calculated first at activity/10^6 cells, and then as % of control. Twenty-four hours prior the end of the experiment, melanocytes received ^3H-tyrosinase (0.7 µCi/ml medium). The conditioned medium from each dish was collected to be assayed for tyrosinase activity, and the cell numbers were determined using a Coulter Counter. Triplicate dishes were included in each group, and duplicate samples from each dish were assayed for tyrosinase activity. Each data point is the mean percent of control of 6 determinations/group ±S.E.

[2] = tested on: strains 1505b and 1513c; test: Cell proliferation as a measure of stability, overall; settings: all experiments on both strains 1505b and 1513c
Protocol: With continued reference to Figs. 7, 8 and 9, to determine the stability of CUV9900 versus that of NDP-MSH and α-MSH, melanocytes were treated with 1 nM of each peptide, namely with CUV9900, NDP-MSH and α-MSH, for a total of 6 days, or with 1 nM peptides that were incubated for 5 hours at 37 °C prior to addition to the cultures, every other day, for a total of 6 days. Tyrosinase activity was measured at the end of treatment. In the experiments, cell number represents the mean percent of control of 3 determinations/ group ±SE, and tyrosinase activity data represent the mean percent of control of 6 determinations ±S.E. It should be noted that for the sake of reproducibility the experiment of strain 1513c of Fig. 9 was performed once more 6 months later than the experiment of Fig. 7.
Peptides were incubated at 37 degrees Celsius for 5 hours and then split into groups. Cell proliferation was a measure of stability, whereby the experiments on strain 1513c were divided in period 1 and 2 under standard conditions.

[3] = tested on: melanocytic strain 10.3c; test: UV-induced generation of hydrogen peroxide (luminol luminescence); settings: 1 nM, 105 mJ/cm^2 UV, 0, 30 and 45 minutes after UV
Text: With reference to Figs. 10 and 11, melanocytes were irradiated with a bank of FS 20 lamps, with 75% emission in the UVB, and 25% emission in the UVA spectra, with peak emission at 313 nm wavelength. Any emission of UVC rays from the UV source (FS 20 lamps) was blocked by Kodacel filter. Prior to irradiation, the culture medium was replaced by PBS, which was removed after UV exposure, and fresh medium added.
Melanocytes were irradiated with 105 mJ/cm^2 UV, and treated immediately while in PBS with 0, 1 nM α-MSH or 1 nM CUV9900. Generation of hydrogen peroxide, representative of reactive oxygen species (ROS), was determined by measuring the luminescence of luminol at 0, 30, and 45 min after UV exposure. Triplicate dishes were included in each group, and duplicate samples from each dish were used for measurement of hydrogen peroxide at each time point. Each data point represents the mean of 6 determinations/group ±S.E.

[4] = tested on: melanocyte strain 103c; test: UV-induced apoptosis by Annexin Va staining, flow cytometry; settings: 1 nM, 4 days prior and 1 day following 105 mJ/cm^2 UV
Protocol: With reference to Fig. 12 and 13, melanocytes were maintained for the duration of the experiment in medium lacking bovine pituitary extract (BPE) to determine the survival effect of α-MSH or its analogs in the absence of the anti-apoptotic effect of TPA. Melanocytes were treated with 0, 1 nM α-MSH, 1 µM Forskolin, or 1 nM NDP-MSH or CUV9900 for 4 days prior to, and 24 h after exposure to a dose of 105 mJ/cm^2 UV, then stained for Annexin Va staining. The data are represented as percent increase above control, with triplicate dishes included in each group.
Comparison of the effect of CUV9900, NDP-MSH and MSH on the UV-induced apoptosis were made in the melanocyte strains 103c and melanocyte strain 1513c of Figs. 12 and 13, respectively. Both strains were treated with 1 nM CUV9900, NDP and MSH, respectively for 4 days prior and 1 day following irradiation. Floating as well as attached cells were harvested and stained for Annexin V, and analyzed by flow cytometry.

Substance: Ac-Nle-Glu His-D-Phe-Arg-Trp-NH2 (Ac-[Nle]EH[dF]RW-NH2; SMILES CCCC[C@H](NC(C)=O)C(=O)N[C@@H](CCC(=O)O)C(=O)N[C@@H](Cc1c[nH]cn1)C(=O)N[C@H](Cc1ccccc1)C(=O)N[C@@H](CCCNC(=N)N)C(=O)N[C@@H](Cc1c[nH]c2ccccc12)C(N)=O) [CUV9900, hexapeptide, alpha-MSH analogue]
- effect on tyrosinase activity, comparison with NDP-MSH [1]: equivalent to that of NDP-MSH
- minimal effective dose (tyrosinase activity) ([1]; 6 days treatment): 1 pM
- more cell proliferation and stability than MSH [2]: 2.9%
- more cell proliferation and stability than NDP-MSH [2]: 4.0%
- UV-induced hydrogen peroxide generation [3]: significant reduction of UV-induced hydrogen peroxide generation
- anti-apoptotic effect (UV-induced apoptosis, Annexin V) [4]: equal anti-apoptotic effect than NDP-MSH
